According to BigSolDB 2.1:

COc1c(O)cc2c(c1O)[C@@H]1O[C@H](CO)[C@@H](O)[C@H](O)[C@H]1OC2=O
solubility (mole fraction)
Conditions	in DMSO	in ethanol	in ethyl acetate	in ethylene glycol	in isopropanol	in n-butanol	in propylene glycol	in sec-butanol	in transcutol	in water
298.15 K	0.0171	0.00469	0.000228	0.00774	0.00129	0.000379	0.00777	0.000384	0.0145	7.57e-05
303.15 K	0.0184	0.00537	0.000311	0.00859	0.00139	0.000404	0.00873	0.00041	0.0166	9.93e-05
308.15 K	0.02	0.00612	0.000405	0.00944	0.00149	0.000431	0.00966	0.00044	0.0186	0.000125
313.15 K	0.0214	0.00687	0.000526	0.0105	0.00159	0.000458	0.0108	0.000473	0.0207	0.000155
318.15 K	0.023	0.00777	0.000671	0.0117	0.00169	0.000492	0.0119	0.000514	0.0228	0.000187

Conditions	solubility (mole fraction)
in PEG-400, 298.15 K	0.0236
in PEG-400, 303.15 K	0.0277
in PEG-400, 308.15 K	0.032
in PEG-400, 313.15 K	0.0367
in PEG-400, 318.15 K	0.0415
